Laboratory results reported in US10369186B2, “Method of treating decline in brain function comprising coadministration of citrulline and glutathione” (KYOWA HAKKO BIO CO., LTD., priority 2012, dated 2019).

Columns and labels:
C57BL/6J mice [1] = assay: Novel object recognition test after bilateral common carotid arteries occlusion; assay type: in vivo; conditions: oral, 7 days, FIG. 3
Experimental: (§1) Experimental Example: 10-week-old male C57BL/6J mice (CLEA Japan, Inc. approximately 25 g of average body weight per mouse) were preliminarily acclimated for 1 week, and provided for experiments. Citrulline and glutathione were obtained from KYOWA HAKKO BIO CO., LTD.
(§2) C57BL/6J mice were divided into a sham-operation group (Group 1) and a bilateral common carotid arteries occlusion group, which was performed under halothane anesthesia for 20 minutes. One day after reperfusion, the bilateral common carotid arteries occlusion group was further divided into a distilled water-treated group (Group 2), a low-dose citrulline-treated group (40 mg/kg: Group 3), a low-dose glutathione-treated group (40 mg/kg: Group 4), a high-dose citrulline-treated group (100 mg/kg: Group 5), a high-dose glutathione-treated group (100 mg/kg: Group 6), and a combination treatment group of a low dose of citrulline and a low dose of glutathione (each 40 mg/kg: Group 7). Each sample was orally administered for 12 days. One week after starting administration, learning memory-improving effects were examined by a Y-maze test, a passive avoidance test, and a novel object recognition test. After evaluating learning memory functions, the hippocampus was removed and viability of hippocampal nerve cells was evaluated.
The novel object recognition test was performed after mice were individually acclimated to the open field apparatus (35×25×35 cm) for 2 days. During training, mice were allowed to explore freely for 10 minutes in an apparatus where two identical objects were symmetrically placed. After 1 hour, one object was replaced by a novel object, and mice were allowed to explore freely for 5 minutes. Object exploration was defined as standing on the objects, touching the object with the nose, or sniffing the object within 1 cm from the object. A ratio of the frequency of exploring the familiar or novel object over the total exploration frequency was calculated, and used as an index for visual recognition memory.

C57BL/6J mice [2] = assay: Y-maze test (spontaneous alternation behavior) after bilateral common carotid arteries occlusion; assay type: in vivo; conditions: oral, 7 days, FIG. 1
Experimental: as §1, §2
In the Y-maze test, a Y-maze apparatus with three arms (50×16×32 cm) was used. Mice were placed at any one arm of the Y-maze and were allowed to explore freely through the maze for 8 minutes. The sequence of arm entries was recorded. The number of entries into each arm was counted during the measurement time, which was defined as the total number of entries. Of them, the successive entry into the three different arms was examined, and this number was defined as the spontaneous alternation behavior number. The spontaneous alternation behavior number was divided by (the total number of arm entries minus two), and then multiplied by 100, which was defined as the spontaneous alternation behavior rate (Alternation) and used as an index for spontaneous alternation behavior.

C57BL/6J mice [3] = assay: Passive avoidance test after bilateral common carotid arteries occlusion; assay type: in vivo; conditions: oral, 7 days, FIG. 2
Experimental: as §1, §2
The passive avoidance test was performed using a box consisting of dark (25×25×25 cm) and light compartments (14×10×25 cm) and being equipped with an electrical stimulation apparatus at the bottom of the dark compartment. During training, as soon as the mouse entered the dark compartment from the light compartment, the door was closed, and an electrical stimulation (0.3 mA, for 2 seconds) was delivered. Twenty four hours after training, the mouse was placed again in the light compartment, and the latency time spent in the light compartment was recorded with a maximum latency of 300 seconds.

hippocampal nerve cells = assay: Evaluation of viability of hippocampal nerve cells after bilateral common carotid arteries occlusion; assay type: in vivo, mice; conditions: oral, 12 days, CA1 pyramidal cell layer, FIG. 4
Experimental: as §1, §2
Twelve days after bilateral occlusion of the common carotid arteries, mice were anesthetized with pentobarbital sodium, and perfused with ice-cold phosphate buffer (PBS, pH 7.4) until the blood in the body was completely removed. Immediately, mice were perfused with a fixative solution containing 4% paraformaldehyde. The brain tissues were fixed at 4° C. for 24 hours, and coronal sections having a thickness of 50 μm were prepared. Serial sections containing the hippocampus were stained with propidium iodide (PI, 5 μmol/L) dissolved in PBS and observed under a fluorescent microscope. Surviving and non-surviving nerve cells in the CA1 pyramidal cell layer of the hippocampus were counted at 1.4 to 1.8 mm posterior to bregma, and cells with PI-positive nuclei and typical morphological characteristics were defined as […]. The cell viability was calculated from a ratio to the average number of surviving nerve cells in Group 1.

[4] = high dose 100 mg/kg alone (Group 5 citrulline, Group 6 glutathione)
[5] = low dose 40 mg/kg alone (Group 3 citrulline, Group 4 glutathione)
[6] = low dose 40 mg/kg alone (Group 3 citrulline, Group 4 glutathione), vs distilled water Group 2
[7] = low dose 40 mg/kg alone (Group 3 citrulline, Group 4 glutathione), vs Group 2

Row | Structure (SMILES) | frequency of exploring the novel object (C57BL/6J mice [1]; [4]) | frequency of exploring the novel object (C57BL/6J mice [1]; [5]) | spontaneous alternation behavior rate (Alternation) (C57BL/6J mice [2]; [4]) | spontaneous alternation behavior rate (Alternation) (C57BL/6J mice [2]; [6]) | time spent in the light compartment (Latency time) (C57BL/6J mice [3]; [4]) | time spent in the light compartment (Latency time) (C57BL/6J mice [3]; [7]) | viability of hippocampal nerve cells (hippocampal nerve cells; [4]) | viability of hippocampal nerve cells (hippocampal nerve cells; [7])
1 | NC(=O)NCCC[C@H](N)C(=O)O [citrulline] | remarkably improved effect of memory behavior | frequency of exploring the novel object cannot be increased | remarkably improved effect of memory behavior | Alternation cannot be improved | remarkably improved effect of memory behavior | latency time cannot be improved | nerve cell-protecting effect | viability of hippocampal nerve cells cannot be improved
2 | N[C@@H](CCC(=O)N[C@@H](CS)C(=O)NCC(=O)O)C(=O)O [glutathione] | remarkably improved effect of memory behavior | frequency of exploring the novel object cannot be increased | remarkably improved effect of memory behavior | Alternation cannot be improved | remarkably improved effect of memory behavior | latency time cannot be improved | nerve cell-protecting effect | viability of hippocampal nerve cells cannot be improved
